Source: patent publication US20250326794A1, “ANTI-CANCER LEUCINE-RICH PEPTIDES AND USES THEREOF” (KING'S COLLEGE LONDON, priority 2019, published 2025)

Legend:
[1] = tested on: HMLER-shEcad (human breast cancer stem cell); assay: cells; settings: 72 h
Summary of the method: (§1)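 MTT viability after 72 h exposure to 0–100 μM compound (final DMSO 0.5% or 0%), 5×10^3 cells/well; HMLER lines and MCF-10A in MEGM, U2OS in DMEM with 10% FBS. A550 normalized to matching vehicle controls; IC50 interpolated from dose–response curves.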

[2] = tested on: HMLER (human breast cancer bulk cell); assay: cells; settings: 72 h
Summary of the method: as §1

[3] = tested on: HEK293T (human embryonic kidney cell); assay: cells; settings: 72 h
[4] = ANTS/DPX liposome leakage assay, POPC vesicles; assay type: biochemical; settings: 0.5 mM vesicles; for Peptide Concentration-induced 50% ANTS/DPX leakage at pH 4.8, POPC Vesicle: pH 4.8, lipid per peptide; for Peptide Concentration-induced 50% ANTS/DPX leakage at pH 7.4, POPC Vesicle: pH 7.4, lipid per peptide
Summary of the method: (§2)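 Peptide titrations (0–20 μM) were incubated 3 h with 0.5 mM ANTS/DPX-loaded 100 nm vesicles, either POPC alone or 3:1 POPC/POPG, at pH 7.4 or pH 4.8 in PBS. ANTS fluorescence (350/510 nm) normalized to Triton-lysed vesicles; 50%-leakage values given as lipid:peptide ratio.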

[5] = tested on: U2OS (human bone osteosarcoma); settings: 72 h
Summary of the method: as §1

[6] = Tryptophan fluorescent binding assay, POPC vesicles; settings: 50 μM peptide, PBS pH 7.4, lipid per peptide
Summary of the method: (§3)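 Binding followed by tryptophan emission (300-450 nm, 280 nm excitation, 3 scans averaged) after 60 min incubation of 50 μM peptide with 0-5000 μM extruded 100 nm POPC or 3:1 POPC/POPG vesicles in PBS pH 7.4. Value: lipid-to-peptide ratio at half-maximal binding.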

[7] = ANTS/DPX liposome leakage assay, 3POPC/1POPG vesicles; assay type: biochemical; settings: 0.5 mM vesicles; for Peptide Concentration-induced 50% ANTS/DPX leakage at pH 4.8, 3POPC/1POPG Vesicle: pH 4.8, lipid per peptide; for Peptide Concentration-induced 50% ANTS/DPX leakage at pH 7.4, 3POPC/1POPG Vesicle: pH 7.4, lipid per peptide
Summary of the method: as §2

[8] = Tryptophan fluorescent binding assay, 3POPC/1POPG vesicles; settings: 50 μM peptide, PBS pH 7.4, lipid per peptide
Summary of the method: as §3

SMILES	IC50 [1] [µM]	IC50 [2] [µM]	IC50 [3] [µM]	Peptide Concentration-induced 50% ANTS/DPX leakage at pH 4.8, POPC Vesicle [4] [L/P]	Peptide Concentration-induced 50% ANTS/DPX leakage at pH 7.4, POPC Vesicle [4] [L/P]	IC50 [5] [µM]	Lipid Concentration-induced 50% Peptide Binding, POPC Vesicle [6] [L/P]	Peptide Concentration-induced 50% ANTS/DPX leakage at pH 4.8, 3POPC/1POPG Vesicle [7] [L/P]	Peptide Concentration-induced 50% ANTS/DPX leakage at pH 7.4, 3POPC/1POPG Vesicle [7] [L/P]	Lipid Concentration-induced 50% Peptide Binding, 3POPC/1POPG Vesicle [8] [L/P]
CC(C)C[C@H](NC(=O)CN)C(=O)N[C@@H](CC(C)C)C(=O)N[C@@H](Cc1c[nH]cn1)C(=O)N[C@@H](CC(C)C)C(=O)N[C@@H](CC(C)C)C(=O)N[C@@H](CCC(=O)O)C(=O)N[C@@H](CC(C)C)C(=O)N[C@@H](CC(C)C)C(=O)N[C@@H](CC(C)C)C(=O)N[C@@H](Cc1c[nH]cn1)C(=O)N[C@@H](C)C(=O)N[C@@H](C)C(=O)NCC(=O)N[C@@H](Cc1c[nH]c2ccccc12)C(N)=O [HEH]	11 ± 1.06	28.6 ± 10.8	8.8 ± 1.7	173	995	106 ± 14	0.88	24	505	3.50
CC(C)C[C@H](NC(=O)CN)C(=O)N[C@@H](CC(C)C)C(=O)N[C@@H](CCCCN)C(=O)N[C@@H](CC(C)C)C(=O)N[C@@H](CC(C)C)C(=O)N[C@@H](CCCCN)C(=O)N[C@@H](CC(C)C)C(=O)N[C@@H](CC(C)C)C(=O)N[C@@H](CC(C)C)C(=O)N[C@@H](Cc1c[nH]cn1)C(=O)N[C@@H](C)C(=O)N[C@@H](C)C(=O)NCC(=O)N[C@@H](Cc1c[nH]c2ccccc12)C(N)=O [KKH]	2.2 ± 0.42	2.4 ± 0.85	4 ± 0.28	164	2119	13.3 ± 0.99	0.83	49	227	0.48
CC(C)C[C@H](NC(=O)CN)C(=O)N[C@@H](CC(C)C)C(=O)N[C@@H](CC(=O)O)C(=O)N[C@@H](CC(C)C)C(=O)N[C@@H](CC(C)C)C(=O)N[C@@H](CCCCN)C(=O)N[C@@H](CC(C)C)C(=O)N[C@@H](CC(C)C)C(=O)N[C@@H](CC(C)C)C(=O)N[C@@H](CCC(=O)O)C(=O)N[C@@H](C)C(=O)N[C@@H](C)C(=O)NCC(=O)N[C@@H](Cc1c[nH]c2ccccc12)C(N)=O [DKE]	1.57 ± 0.33	2.1	7.8 ± 1.41	21	747	9.93 ± 0.25	0.56	469	411	0.46
CC(C)C[C@H](NC(=O)CN)C(=O)N[C@@H](CC(C)C)C(=O)N[C@@H](Cc1c[nH]cn1)C(=O)N[C@@H](CC(C)C)C(=O)N[C@@H](CC(C)C)C(=O)N[C@@H](Cc1c[nH]cn1)C(=O)N[C@@H](CC(C)C)C(=O)N[C@@H](CC(C)C)C(=O)N[C@@H](CC(C)C)C(=O)N[C@@H](Cc1c[nH]cn1)C(=O)N[C@@H](C)C(=O)N[C@@H](C)C(=O)NCC(=O)N[C@@H](Cc1c[nH]c2ccccc12)C(N)=O [HHH]	9.5 ± 0.99	21.1 ± 6.93	30.6 ± 4.81	173	1133	185 ± 7	0.46	50	469	0.82
